pKd: −log10 of the molar value. Where “and” joins values, the source holds several entries; their conditions need not be identical. Equal values may be shown once. Read-outs that look alike come from different tables or passages of the source. Values belong to the compound of their own block, whether it stands above or below them.
What was measured:
HSA [1] = molecular target: T1, HSA (Homo sapiens, UniProt P02768)
HSA [2] = molecular target: T1, HSA; experiment: Drug screening: HSA binding constants from DSC thermograms
human plasma = experiment: DSC thermograms of plasma with ligand; type: binding; conditions: plasma
HSA [3] = molecular target: T1, HSA; set-up: purchased Sigma Aldrich (St. Louis, Mo.); conditions: cited from earlier work; for pKd: binding to HSA, read-out: Average Literature KD
biotinylated HSA (HSAB) = biotinylated HSA (HSAB) (Homo sapiens, UniProt P02768); experiment: DSC thermograms of biotinylated HSA (HSAB) with ligands; type: binding
biotinylated HSA (HSAB), sequence (P02768 25-609): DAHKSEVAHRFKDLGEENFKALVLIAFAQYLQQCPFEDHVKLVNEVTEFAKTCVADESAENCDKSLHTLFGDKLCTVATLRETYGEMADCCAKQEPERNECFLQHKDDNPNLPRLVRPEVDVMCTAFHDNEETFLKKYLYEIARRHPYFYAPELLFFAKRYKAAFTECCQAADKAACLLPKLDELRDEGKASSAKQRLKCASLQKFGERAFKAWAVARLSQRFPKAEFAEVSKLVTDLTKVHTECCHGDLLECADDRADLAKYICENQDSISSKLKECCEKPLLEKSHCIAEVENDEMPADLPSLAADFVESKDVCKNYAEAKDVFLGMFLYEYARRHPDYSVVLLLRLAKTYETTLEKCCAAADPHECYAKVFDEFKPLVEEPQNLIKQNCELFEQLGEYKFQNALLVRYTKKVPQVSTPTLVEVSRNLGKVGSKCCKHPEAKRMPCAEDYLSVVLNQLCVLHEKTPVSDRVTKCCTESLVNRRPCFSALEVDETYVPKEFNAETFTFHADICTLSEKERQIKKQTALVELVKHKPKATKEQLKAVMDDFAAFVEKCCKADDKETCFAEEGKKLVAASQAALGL

[4] = molecular target: T2, human serum albumin (HSA) (Homo sapiens, UniProt P02768); experiment: DSC thermograms of HSA with ligand (single-ligand titration); type: binding; conditions: for Binding Site stoichiometry / Implied number of sites: from dose response curves with HSA; for Tm / ΔG37^O / ΔHcal / ΔScal: thermal denaturation of HSA
T2 construct: purchased Sigma Aldrich (St. Louis, Mo.)
T2 sequence (P02768 25-609): as above
Experimental: Chemicals and reagents: Plasma and highly pure plasma proteins are sourced from commercial suppliers. Standard reagents are sourced from commercial suppliers. Samples are prepared in standard phosphate-buffered saline (PBS) buffer. In some examples, human plasma and serum albumin were purchased from Sigma Aldrich (St. Louis, Mo.) and received as lyophilized powder. Plasma was product number: P9523, lot number: SLBT0202. […] In vivo, the standard state of HSA is most certainly bound to some extent by fatty acids. Plasma and HSA stock solutions were prepared by re-suspending the appropriate amount of powder in buffer. Samples were prepared by diluting stock solutions to a final concentration of 1.5-2.0 mg/mL.
Protein concentration was approximately 2 mg/ml.
In a DSC melting experiment, the supplemental power supplied to the sample cell (in μW) necessary to keep the sample temperature equal to the reference temperature is continually monitored. […] Supplemental power is directly related to the molar heat capacity at constant pressure, ΔCp. Curves of ΔCp versus T provide an evaluation of the thermodynamic enthalpy. To enable direct comparisons in some cases, power (μW) versus T plots (instead of ΔCp versus T curves) were used for the following reason.
Analysis of DSC data was performed using the Nanoanalyze software package, version 3.7.5, provided by T.A. Instruments. […]
From the thermograms, semi-quantitative evaluations of the thermodynamic parameters ΔHcal, ΔScal and ΔGcal(37° C.) were obtained at each ligand concentration.
These curves were constructed from titrations of DM1 with HSA. The Tm and ΔGcal(37° C.) were evaluated. The values were normalized against standard HSA and plotted versus ligand concentration to provide the dose curves in FIG. 20A (Tm) and FIG. 20B (ΔGcal(37° C.)).
Natural HSA samples were prepared at pH 6.0 and pH 8.0 and examined by DSC. […] From DSC melting curves thermodynamic parameters for HSA/ligand mixtures were evaluated.

[5] = molecular target: T2, human serum albumin (HSA); experiment: Two-ligand (NAP + BCG) binding to standard HSA by DSC
[6] = after several days; cited from earlier work
[7] = ligand 22.5 μM (so in the source)

T1 sequence (P02768 25-609): as above

- Measured HSA binding (cell spanning the measured KD columns; same in text) (HSA [1]): No Binding Detected
Compound: CNC[C@H](O)[C@@H](O)[C@H](O)[C@H](O)CO.CNC[C@H](O)[C@@H](O)[C@H](O)[C@H](O)CO.O=C([O-])CN(CCN(CC(=O)[O-])CC(=O)O)CCN(CC(=O)[O-])CC(=O)O.[Gd+3] [Magnevist (MAG)]

- Measured HSA binding (cell spanning the measured KD columns; same in text) (HSA [1]): No Binding Detected
Compound: O=C([O-])CN1CCN(CC(=O)[O-])CCN([C@H](CO)[C@H](O)CO)CCN(CC(=O)[O-])CC1.[Gd+3] [Gadavist (GAD)]

Compound: Cc1c(C2(c3cc(Br)c(O)c(Br)c3C)OS(=O)(=O)c3ccccc32)cc(Br)c(O)c1Br [BCG, bromocresol green]
- pKd (HSA [2]; read-out: Average Measured KD; binding to HSA; single value or value marked 1)): 5.48
- pKd (HSA [2]; read-out: Measured KD From TM; binding to HSA; single value or value marked 1)): 5.30
- pKd (HSA [2]; read-out: Measured KD from ΔG^037; binding to HSA; single value or value marked 1)): 5.79
- shift in Tm (human plasma; 100 μM ligand): about 7 °C
- enthalpy (ΔHcal) of plasma with ligand (human plasma; 100 μM ligand (FIG. 10A)): 141 kcal/mol
- major Tm peak of plasma shifted to (human plasma; 100 μM ligand (FIG. 10A)): 72 °C
- binding stoichiometry n on HSA (HSA [3]; NAP Sudlow site II, BCG Sudlow site I): 3
- pKd (HSA [3]): 5.84
- Binding Chemical Potentials (ΔG^O37) (biotinylated HSA (HSAB); HSAB 1:1 with 50 μM BCG, [NAP] 0 μM): 18.49 kcal/mol
- Binding Chemical Potentials (ΔG^O37) (biotinylated HSA (HSAB); HSAB 1:1 with 50 μM NAP, [BCG] 50 μM): 21.76 kcal/mol
- Binding Chemical Potentials (ΔG^O37) (biotinylated HSA (HSAB); HSAB 1:1 with 50 μM NAP, [BCG] 75 μM): 22.56 kcal/mol
- Binding Chemical Potentials (ΔG^O37) (biotinylated HSA (HSAB); HSAB 1:1 with 50 μM NAP, [BCG] 150 μM): 22.96 kcal/mol
- Binding Chemical Potentials (ΔG^O37) (biotinylated HSA (HSAB); HSAB 1:5 with 50 μM BCG, [NAP] 0 μM): 21.27 kcal/mol
- Binding Chemical Potentials (ΔG^O37) (biotinylated HSA (HSAB); HSAB 1:5 with 50 μM NAP, [BCG] 50 μM): 24.12 kcal/mol
- Binding Chemical Potentials (ΔG^O37) (biotinylated HSA (HSAB); HSAB 1:5 with 50 μM NAP, [BCG] 75 μM): 25.60 kcal/mol
- Binding Chemical Potentials (ΔG^O37) (biotinylated HSA (HSAB); HSAB 1:5 with 50 μM NAP, [BCG] 150 μM): 25.06 kcal/mol
- Binding Chemical Potentials (ΔG^O37) (biotinylated HSA (HSAB); HSAB 1:10 with 50 μM BCG, [NAP] 0 μM): 22.37 kcal/mol
- Binding Chemical Potentials (ΔG^O37) (biotinylated HSA (HSAB); HSAB 1:10 with 50 μM NAP, [BCG] 50 μM): 25.04 kcal/mol
- Binding Chemical Potentials (ΔG^O37) (biotinylated HSA (HSAB); HSAB 1:10 with 50 μM NAP, [BCG] 75 μM): 25.30 kcal/mol
- Binding Chemical Potentials (ΔG^O37) (biotinylated HSA (HSAB); HSAB 1:10 with 50 μM NAP, [BCG] 150 μM): 24.99 kcal/mol
- increase of ΔGcal(37° C.) versus titration curve at pH 7.4 ([4]; HSA + ligand at pH 6.0, as much as): ~5 kcal/mol
- lowering of ΔGcal(37° C.) versus titration curve at pH 7.4 ([4]; HSA + ligand at pH 8.0): ~2 kcal/mol
- ΔHcal of HSA/ligand ([4]; HSA, 100 μM ligand (text, FIG. 10B)): 165.6 kcal/mol and 166 kcal/mol
- Binding Site stoichiometry [4]: 3
- Implied number of sites [4]: 6
- Tm ([4]; ligand 1 μM): 62.9 °C
- ΔG37^O ([4]; ligand 1 μM): 13.11 kcal/mol
- ΔHcal ([4]; ligand 1 μM): 170.12 kcal/mol
- ΔScal ([4]; ligand 1 μM): 506.23 cal/molK
- Tm ([4]; ligand 10 μM): 63.3 °C
- ΔG37^O ([4]; ligand 10 μM): 13.83 kcal/mol
- ΔHcal ([4]; ligand 10 μM): 176.99 kcal/mol
- ΔScal ([4]; ligand 10 μM): 526.08 cal/molK
- Tm [4, 7]: 70.8 °C
- ΔG37^O [4, 7]: 16.43 kcal/mol
- ΔHcal [4, 7]: 167.24 kcal/mol
- ΔScal [4, 7]: 486.25 cal/molK
- Tm ([4]; ligand 25 μM): 63.6 °C
- ΔG37^O ([4]; ligand 25 μM): 14.39 kcal/mol
- ΔHcal ([4]; ligand 25 μM): 182.05 kcal/mol
- ΔScal ([4]; ligand 25 μM): 540.59 cal/molK
- Tm ([4]; ligand 50 μM): 64.0 °C
- ΔG37^O ([4]; ligand 50 μM): 15.19 kcal/mol
- ΔHcal ([4]; ligand 50 μM): 189.75 kcal/mol
- ΔScal ([4]; ligand 50 μM): 562.81 cal/molK
- Tm ([4]; ligand 75 μM): 64.6 °C
- ΔG37^O ([4]; ligand 75 μM): 15.33 kcal/mol
- ΔHcal ([4]; ligand 75 μM): 187.76 kcal/mol
- ΔScal ([4]; ligand 75 μM): 555.95 cal/molK
- Tm ([4]; ligand 125 μM): 67.2 °C
- ΔG37^O ([4]; ligand 125 μM): 16.18 kcal/mol
- ΔHcal ([4]; ligand 125 μM): 182.33 kcal/mol
- ΔScal ([4]; ligand 125 μM): 535.71 cal/molK
- Tm ([4]; ligand 150 μM): 69.0 °C
- ΔG37^O ([4]; ligand 150 μM): 16.74 kcal/mol
- ΔHcal ([4]; ligand 150 μM): 178.84 kcal/mol
- ΔScal ([4]; ligand 150 μM): 522.66 cal/molK
- Tm ([4]; ligand 175 μM): 69.1 °C
- ΔG37^O ([4]; ligand 175 μM): 15.92 kcal/mol
- ΔHcal ([4]; ligand 175 μM): 169.77 kcal/mol
- ΔScal ([4]; ligand 175 μM): 496.04 cal/molK
- Tm ([4]; ligand 200 μM): 70.3 °C
- ΔG37^O ([4]; ligand 200 μM): 16.24 kcal/mol
- ΔHcal ([4]; ligand 200 μM): 167.42 kcal/mol
- ΔScal ([4]; ligand 200 μM): 487.44 cal/molK
- Binding Chemical Potentials (ΔG^O37) ([5]; HSA25BCG (HSA + 25 μM BCG), [NAP] 0 μM): 14.00 kcal/mol
- Binding Chemical Potentials (ΔG^O37) ([5]; HSA25NAP (pre-bound 25 μM NAP), [BCG] 50 μM): 18.33 kcal/mol
- Binding Chemical Potentials (ΔG^O37) ([5]; HSA25NAP (pre-bound 25 μM NAP), [BCG] 75 μM): 19.49 kcal/mol
- Binding Chemical Potentials (ΔG^O37) ([5]; HSA25NAP (pre-bound 25 μM NAP), [BCG] 150 μM): 19.61 kcal/mol
- Binding Chemical Potentials (ΔG^O37) ([5]; HSA50BCG (HSA + 50 μM BCG), [NAP] 0 μM): 15.13 kcal/mol
- Binding Chemical Potentials (ΔG^O37) ([5]; HSA50NAP (pre-bound 50 μM NAP), [BCG] 50 μM): 18.27 kcal/mol
- Binding Chemical Potentials (ΔG^O37) ([5]; HSA50NAP (pre-bound 50 μM NAP), [BCG] 75 μM): 18.47 kcal/mol
- Binding Chemical Potentials (ΔG^O37) ([5]; HSA50NAP (pre-bound 50 μM NAP), [BCG] 150 μM): 19.29 kcal/mol
- Binding Chemical Potentials (ΔG^O37) ([5]; HSA75BCG (HSA + 75 μM BCG), [NAP] 0 μM): 15.33 kcal/mol
- Binding Chemical Potentials (ΔG^O37) ([5]; HSA75NAP (pre-bound 75 μM NAP), [BCG] 50 μM): 19.51 kcal/mol
- Binding Chemical Potentials (ΔG^O37) ([5]; HSA75NAP (pre-bound 75 μM NAP), [BCG] 75 μM): 20.42 kcal/mol
- Binding Chemical Potentials (ΔG^O37) ([5]; HSA75NAP (pre-bound 75 μM NAP), [BCG] 150 μM): 21.08 kcal/mol
- Binding Chemical Potentials (ΔG^O37) ([5]; WT HSA with 50 μM BCG, [NAP] 0 μM): 15.19 kcal/mol
- Binding Chemical Potentials (ΔG^O37) ([5]; WT HSA with 50 μM NAP, [BCG] 50 μM): 18.38 kcal/mol
- Binding Chemical Potentials (ΔG^O37) ([5]; WT HSA with 50 μM NAP, [BCG] 75 μM): 18.74 kcal/mol
- Binding Chemical Potentials (ΔG^O37) ([5]; WT HSA with 50 μM NAP, [BCG] 150 μM): 19.86 kcal/mol

- pKd (HSA [2]; Average Measured KD, binding to HSA; single value or value marked 1)): 4.58
- pKd (HSA [2]; Measured KD From TM, binding to HSA; single value or value marked 1)): 4.63
- pKd (HSA [2]; Measured KD from ΔG^037, binding to HSA; single value or value marked 1)): 4.54
- Binding Site stoichiometry [4]: 1
- Implied number of sites [4]: 1
Compound: CCCCNc1ccc(C(=O)OCCN(C)C)cc1 [Tet, Tetracaine]
- effect on fibrinogen melting transition peak (52° C.) of the plasma thermogram (human plasma; 2 mg/mL ligand): slight change
- Tm where the HSA in plasma transition occurs (human plasma; 2 mg/mL ligand, control 62-64° C.): 63-65 °C
- pKd (HSA [3]): 4.22
- in vivo activity [6]: retained significant activity after several days
